Assays:
Format in all cases: cell-based
[1] = tested on: patient-derived and commercially-available PDAC cell lines; assay: proliferation assay in a panel of PDAC cell lines; conditions: range over all tested PDAC cell lines
[2] = tested on: patient-derived and commercially-available PDAC cell lines; assay: apoptosis induction assay in PDAC cell lines; conditions: all tested PDAC cell lines
p-STAT3 = molecular target: T1, p-STAT3 (Homo sapiens, UniProt P40763); assay: inhibition of p-STAT3 by western blot and immunofluorescence in PDAC cell lines; conditions: all tested PDAC cell lines; western blot, immunofluorescence
T1 construct: endogenous in cells
Experimental: The chemical synthesis of WP1066 and WP1732 and their characterization was performed at U.T. MD Anderson Cancer Center. In vitro efficacy of both inhibitors was assessed using proliferation and apoptosis induction assays in a panel of patient-derived and commercially-available PDAC cell lines. Inhibition of p-STAT3 was investigated using western blot (WB) and immunofluorescence. […] Observed IC50 values ranged from 0.5 to 2 μM.

T1 sequence (P40763 whole entry): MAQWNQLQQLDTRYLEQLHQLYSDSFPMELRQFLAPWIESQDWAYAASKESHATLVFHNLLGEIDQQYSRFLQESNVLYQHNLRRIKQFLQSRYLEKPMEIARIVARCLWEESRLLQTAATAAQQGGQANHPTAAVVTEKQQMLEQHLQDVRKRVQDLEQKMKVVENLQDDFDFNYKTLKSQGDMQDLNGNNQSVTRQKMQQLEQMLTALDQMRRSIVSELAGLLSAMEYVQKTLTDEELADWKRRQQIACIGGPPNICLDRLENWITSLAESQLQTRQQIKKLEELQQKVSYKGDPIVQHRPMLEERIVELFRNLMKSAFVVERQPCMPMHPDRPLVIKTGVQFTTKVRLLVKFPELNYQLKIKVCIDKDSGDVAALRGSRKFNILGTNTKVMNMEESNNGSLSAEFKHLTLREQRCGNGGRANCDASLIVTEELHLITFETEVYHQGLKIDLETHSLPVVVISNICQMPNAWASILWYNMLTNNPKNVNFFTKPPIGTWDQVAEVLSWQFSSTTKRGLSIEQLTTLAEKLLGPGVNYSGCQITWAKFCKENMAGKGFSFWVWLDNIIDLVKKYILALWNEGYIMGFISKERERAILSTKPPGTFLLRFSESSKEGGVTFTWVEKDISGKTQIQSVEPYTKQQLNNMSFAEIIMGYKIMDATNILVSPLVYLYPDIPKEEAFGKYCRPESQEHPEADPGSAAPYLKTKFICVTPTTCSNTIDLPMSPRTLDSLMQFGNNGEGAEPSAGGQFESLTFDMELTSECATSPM

For `C[C@H](NC(=O)/C(C#N)=C/c1cccc(Br)n1)c1ccccc1` [WP1066], the IC50 [1] was 500 to 2000 nM, the apoptosis induction [2] was “induce apoptosis” and the “inhibition of p-STAT3 and its nuclear localization” value (p-STAT3) was “inhibit p-STAT3 and its nuclear localization”.
